Among the data in patent US20190322643A1 (Georgia State University Research Foundation, Inc., priority 2016, published 2019) are IC50 values, retold here.

Structures are written as SMILES.

For this test, the target named is T1, G9a (Homo sapiens, UniProt Q96KQ7).
T1 construct: endogenous in cells; host or cells: MDA-MB-231
T1 sequence (Q96KQ7 1-1210): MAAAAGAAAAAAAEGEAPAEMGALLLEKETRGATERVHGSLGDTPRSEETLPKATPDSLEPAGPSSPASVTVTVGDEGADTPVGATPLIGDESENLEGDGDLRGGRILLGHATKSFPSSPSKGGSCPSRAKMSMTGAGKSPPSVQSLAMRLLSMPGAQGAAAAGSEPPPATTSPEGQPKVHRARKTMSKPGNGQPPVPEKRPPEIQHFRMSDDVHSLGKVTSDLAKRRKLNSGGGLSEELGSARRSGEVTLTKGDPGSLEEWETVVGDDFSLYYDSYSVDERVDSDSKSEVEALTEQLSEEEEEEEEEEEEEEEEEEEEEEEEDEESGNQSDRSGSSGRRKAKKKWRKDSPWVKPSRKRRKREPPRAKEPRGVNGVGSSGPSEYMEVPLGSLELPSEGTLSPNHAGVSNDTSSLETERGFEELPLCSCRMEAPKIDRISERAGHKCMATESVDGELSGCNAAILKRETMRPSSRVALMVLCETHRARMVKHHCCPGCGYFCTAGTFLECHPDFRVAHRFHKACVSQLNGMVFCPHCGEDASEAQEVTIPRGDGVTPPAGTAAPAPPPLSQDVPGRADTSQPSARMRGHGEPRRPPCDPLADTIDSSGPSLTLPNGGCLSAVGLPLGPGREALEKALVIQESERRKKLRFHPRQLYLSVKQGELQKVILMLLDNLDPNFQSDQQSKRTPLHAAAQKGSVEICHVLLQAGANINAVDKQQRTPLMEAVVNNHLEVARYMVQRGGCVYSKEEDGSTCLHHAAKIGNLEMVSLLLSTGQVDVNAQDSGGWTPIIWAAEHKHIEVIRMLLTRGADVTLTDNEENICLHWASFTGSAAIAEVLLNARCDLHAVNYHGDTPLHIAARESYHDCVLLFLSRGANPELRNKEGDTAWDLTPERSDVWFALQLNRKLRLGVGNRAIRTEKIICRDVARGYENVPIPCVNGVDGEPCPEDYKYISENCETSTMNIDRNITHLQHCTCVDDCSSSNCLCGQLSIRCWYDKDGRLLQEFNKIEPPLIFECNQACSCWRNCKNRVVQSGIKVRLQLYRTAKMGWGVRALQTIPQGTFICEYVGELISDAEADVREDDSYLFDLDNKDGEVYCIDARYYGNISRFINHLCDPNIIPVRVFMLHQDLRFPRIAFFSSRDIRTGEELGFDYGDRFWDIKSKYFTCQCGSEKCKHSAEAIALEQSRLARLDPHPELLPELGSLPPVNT
Nature of the test: H3K9Me2 cell immunofluorescence in-cell Western (ICW) assay. In kind it is cell-based. The settings on record: MDA-MB-231 cell line, 48 h.

`CN1CCCN(c2nc(NC3CCN(Cc4ccccc4)CC3)c3ccc(OCCCCCCC(=O)NO)cc3n2)CC1` [Compound 30] came in with an IC50 of over 100 µM.

The term IC50 denotes the concentration that gives 50% inhibition. A lower IC50 goes with greater potency.
